# Source: patent publication US12595251B2, “Amidines and amidine analogs for the treatment of bacterial infections and potentiation antibiotics” (GEORGIA STATE UNIVERSITY RESEARCH FOUNDATION, INC., priority 2018, dated 2026)
# Structures can show the parent of a compound that is named as a salt.
# How the values were obtained:
# E. coli = experiment: MIC of compounds against E. coli (OD600, 48 h); type: cell-based; conditions: Escherichia coli; for inhibition at 25 µM: read-out: Growth inhibition of E. coli at 25 μM, compound alone at 25 μM, NA=no activity; for inhibition at 12 µM: compound alone at 12 μM, read-out: Growth inhibition of E. coli at 12 μM; for inhibition at 12 µM / MIC: NA=no activity; for inhibition at 50 µM: read-out: Growth inhibition of E. coli at 50 μM, compound alone at 50 μM, NA=no activity; for MIC: MIC = 90% growth inhibition, compound alone
# B. subtilis = experiment: MIC of compounds against B. subtilis (OD600, 48 h); type: cell-based; conditions: Bacillus subtilis; for MIC: MIC = 90% growth inhibition, compound alone; for inhibition at 1 µM: read-out: Growth inhibition of B. subtilis at 1 μM, compound alone at 1 μM; for inhibition at 2 µM: read-out: Growth inhibition of B. subtilis at 2 μM, compound alone at 2 μM; for inhibition at 12 µM: compound alone at 12 μM, read-out: Growth inhibition of B. subtilis at 12 μM; for inhibition at 6 µM: read-out: Growth inhibition of B. subtilis at 6 μM, compound alone at 6 μM, NA=no activity; for inhibition at 25 µM: read-out: Growth inhibition of B. subtilis at 25 μM, compound alone at 25 μM; for inhibition at 12.5 µM: compound alone at 12.5 μM, NA=no activity, read-out: Growth inhibition of B. subtilis at 12.5 μM; for inhibition at 3 µM: read-out: Growth inhibition of B. subtilis at 3 μM, compound alone at 3 μM, NA=no activity
# Procedure: Bacteria were then cultured with varying concentration of the compounds shown below for 48 hours, and then bacterial density was measured based on OD600. The procedure to determine the MIC for each compound against B. subtilis was the same except that the bacteria was cultured in nutrient broth. The MIC of each compound against B. subtilis is shown in Table 2 (NA=no activity, --=not tested).
# wild-type E. coli = experiment: Sensitization of wild-type E. coli toward antibiotics (MIC of antibiotic with/without sensitizer); type: cell-based, Escherichia coli; conditions: for Sensitization fold: compound at 5 μg/ml, strain and antibiotic not stated in Table 8
# Procedure: Bacteria were cultured with the antibiotic at various concentrations in the presence or absence of bacterial sensitizer for 24 hours at 37° C. Bacterial growth density was determined by measuring OD600 (absorbance measured at a wavelength of 600 nm). […]
# The formula for calculating FIC is shown below: […]
Structure (SMILES),inhibition at 25 µM (E. coli),inhibition at 12 µM (E. coli),inhibition at 12 µM (B. subtilis),inhibition at 6 µM (B. subtilis),further results
Cc1cc(COc2ccc(C(=N)N)cc2F)cc(COc2ccc(C(=N)N)cc2F)c1 [drawing 794],30%,,,,
CC(C)(C)c1cc(COc2ccc(C(=N)N)cc2)cc(COc2ccc(C(=N)N)cc2)c1 [drawing 770],90%,40%,,,MIC (B. subtilis): 6 µM; inhibition at 1 µM (B. subtilis): 10%; inhibition at 2 µM (B. subtilis): 70%
CC(C)NC(=N)c1ccc(OCc2cccc(COc3ccc(C(=N)NC(C)C)cc3F)c2F)c(F)c1 [drawing 785],50%,40%,70%,60%,
COc1cc(C(=N)N)ccc1OCc1cc(C)cc(COc2ccc(C(=N)N)cc2OC)c1 [drawing 768],50%,25%,,,MIC (B. subtilis): 6 µM; inhibition at 1 µM (B. subtilis): 10%; inhibition at 2 µM (B. subtilis): 50%
Cc1cc(CSc2ccc(C3=NCCN3)cc2)cc(CSc2ccc(C3=NCCN3)cc2)c1 [drawing 792],,,,,"inhibition at 12.5 µM (E. coli; compound alone at 12.5 μM, read-out: Growth inhibition of E. coli at 12.5 μM): 10%"
"Cc1cc(COc2ccc(C(=N)N)cc2F)cc(COc2ccc(C(=N)N)cc2F)c1 [Compound E-18, 1,3-Bis {[4-amidino-2-fluoro)-phenoxymethyl]}-5-methyl-benzene dihydrochloride]",,,,,Sensitization fold (wild-type E. coli): 32
Cc1cc(-c2nc3cc(C(=N)N)ccc3n2C)sc1-c1ccc(OCCCCOc2ccc(C(=N)N)cc2)cc1 [drawing 775],30%,,70%,,
c1cc(COc2ccc(C3=NCCN3)cc2)cc(COc2ccc(C3=NCCN3)cc2)c1 [drawing 762],50%,25%,,,
N=C(N)c1ccc(OCc2cccc(COc3ccc(C(=N)N)cc3)c2)cc1 [drawing 773],50%,35%,70%,60%,inhibition at 50 µM (E. coli): 60%; inhibition at 2 µM (B. subtilis): 30%
Cc1cc(COc2ccc(C(=N)N)cc2)cc(COc2ccc(C(=N)N)cc2)c1 [drawing 761],25%,15%,20%,,inhibition at 25 µM (B. subtilis): 50%
N=C(N)c1ccc(OCc2ccc(COc3ccc(C(=N)N)cc3)cc2)cc1 [drawing 766],20%,10%,70%,60%,
N=C(N)c1ccc2nc(-c3ccc(OCC(F)(F)C(F)(F)COc4ccc(-c5nc6ccc(C(=N)N)cc6[nH]5)cc4)cc3)[nH]c2c1 [drawing 753],50%,,,,inhibition at 12.5 µM (B. subtilis): 10%; inhibition at 25 µM (B. subtilis): 20%
"N=C(N)c1ccc(OCCCCCOc2ccc(C(=N)N)cc2)cc1 [Pentamidine, pentamidine]",,,,,Minimal concentration achieving 10-fold sensitization of E. coli toward erythromycin (wild-type E. coli): 40 μg/ml
CC(C)(C)c1cc(COc2ccc(C(=N)N)cc2F)cc(COc2ccc(C(=N)N)cc2F)c1 [drawing 789],,,,,MIC (E. coli): 50 µM; MIC (B. subtilis): 50 µM
N=C(N)c1ccc(OCc2cccc(COc3ccc(C(=N)N)cc3)n2)cc1 [drawing 776],,,,,inhibition at 50 µM (E. coli): 50%; MIC (B. subtilis): 12.5 µM; inhibition at 2 µM (B. subtilis): 40%
CCCCc1cc(OCc2ccc(C(=N)N)cc2)cc(OCc2ccc(C(=N)N)cc2)c1 [drawing 796],,,,,"inhibition at 10 µM (E. coli; read-out: Growth inhibition of E. coli at 10 μM, compound alone at 10 μM): 20%"
N=C(N)c1ccc(OCc2cc(COc3ccc(C(=N)N)cc3)cc(COc3ccc(C(=N)N)cc3)c2)cc1 [drawing 781],60%,40%,,80%,MIC (B. subtilis): 12 µM
Cn1c(-c2ccc(-c3ccc(C(=N)N)cc3)s2)nc2cc(-c3ccc(C(=N)N)cc3)ccc21 [drawing 771],15%,,,50%,MIC (B. subtilis): 12 µM; inhibition at 2 µM (B. subtilis): 20%
Cn1c(CCCCc2nc3ccc(C(=N)N)cc3n2C)nc2ccc(C(=N)N)cc21 [drawing 754],,,,,inhibition at 25 µM (B. subtilis): 20%
"CC(C)(C)c1cc(COc2ccc(C(=N)N)cc2F)cc(COc2ccc(C(=N)N)cc2F)c1 [Compound E-15, 1,3-bis {[4-amidino-2-fluoro]-phenoxymethyl]}-5-(tert-butyl)benzene dihydrochloride]",,,,,Sensitization fold (wild-type E. coli): 256
Cc1cc(COc2ccc(C3=CCCCN3)cc2)cc(COc2ccc(C3=NCCCN3)cc2)c1,,,,,MIC (B. subtilis): 50 µM; inhibition at 25 µM (B. subtilis): 50%
Cc1cc(COc2ccc(C(=N)NC(C)C)cc2)cc(COc2ccc(C(=N)NC(C)C)cc2)c1 [drawing 767],50%,40%,,,MIC (B. subtilis): 6 µM; inhibition at 1 µM (B. subtilis): 60%; inhibition at 2 µM (B. subtilis): 70%

Structure (SMILES),inhibition at 25 µM (E. coli),inhibition at 12 µM (E. coli),inhibition at 12 µM (B. subtilis),inhibition at 6 µM (B. subtilis),further results
N=C(N)c1ccc(OCOc2ccc(C(=N)N)cc2)cc1 [drawing 777],,,,10%,inhibition at 12.5 µM (B. subtilis): 80%
Cc1cc(COc2ccc(C3=NCCN3)cc2)cc(COc2ccc(C3=NCCN3)cc2)c1 [drawing 779],25%,10%,25%,20%,
N=C(N)c1ccc(OCCCCCCOc2ccc(C(=N)N)cc2)cc1 [drawing 778],70%,40%,,40%,MIC (B. subtilis): 12 µM; inhibition at 2 µM (B. subtilis): 30%
Cc1ccc(COc2ccc(C(=N)N)cc2)cc1COc1ccc(C(=N)N)cc1 [drawing 793],,,60%,40%,
N=C(N)c1ccc(OCCCCCCCCOc2ccc(C(=N)N)cc2)cc1 [drawing 774],,,,,MIC (E. coli): 25 µM
Cc1cc(OCc2ccc(C(=N)N)cc2)cc(OCc2ccc(C(=N)N)cc2)c1 [drawing 783],30%,,20%,,
Cc1cc(CSc2ccc(C(=N)N)cc2)cc(CSc2ccc(C(=N)N)cc2)c1 [drawing 791],,15%,,40%,inhibition at 3 µM (B. subtilis): 10%
Cc1cc(CCc2ccc(C(=N)N)cc2)cc(CCc2ccc(C(=N)N)cc2)c1 [drawing 782],20%,10%,80%,30%,
COc1cc(C(=N)N)ccc1OCc1cc(COc2ccc(C(=N)N)cc2OC)cc(C(C)(C)C)c1 [drawing 788],,,,40%,inhibition at 50 µM (E. coli): 80%; inhibition at 3 µM (B. subtilis): 30%
N=C(N)c1ccc(Oc2ccc(C(=N)N)cc2)cc1 [drawing 755],,,,,inhibition at 12.5 µM (B. subtilis): 60%; inhibition at 25 µM (B. subtilis): 70%
CO/N=C(\N)c1ccc(OCc2cc(C)cc(COc3ccc(/C(N)=N\OC)cc3)c2)cc1 [drawing 795],,,,,MIC (E. coli): 100 µM
N=C(N)c1ccc(OCc2cccc(COc3ccc(C(=N)N)cc3)c2F)cc1 [drawing 758],,80%,60%,50%,"inhibition at 6 µM (E. coli; read-out: Growth inhibition of E. coli at 6 μM, compound alone at 6 μM): 60%"
Fc1c(COc2ccc(C3=NCCN3)cc2)cccc1COc1ccc(C2=NCCN2)cc1 [drawing 763],20%,,,,
N=C(N)c1ccc2[nH]c(-c3ccc(-c4ccc(-c5ccc(-c6ccc(-c7nc8cc(C(=N)N)ccc8[nH]7)cc6)s5)s4)cc3)nc2c1 [drawing 772],,,20%,20%,inhibition at 50 µM (E. coli): 10%
Cc1cc(COc2ccc(CN)cc2)cc(COc2ccc(CN)cc2)c1 [drawing 780],30%,10%,10%,,
CC(C)NC(=N)c1ccc(OCc2cccc(COc3ccc(C(=N)NC(C)C)cc3)c2F)cc1 [drawing 784],80%,60%,80%,70%,
Cc1cc(COc2cccc(C(=N)N)c2)cc(COc2cccc(C(=N)N)c2)c1 [drawing 790],,,,,inhibition at 50 µM (E. coli): 80%; MIC (B. subtilis): 50 µM
CCCNC(=N)c1ccc(COc2cc(C)cc(OCc3ccc(C(=N)NCCC)cc3)c2)cc1 [drawing 786],,,,,MIC (B. subtilis): 50 µM; inhibition at 12.5 µM (B. subtilis): 30%; inhibition at 25 µM (B. subtilis): 50%
N=C(N)c1ccc(OCc2ccc(-c3ccc(C(=N)N)cc3)cc2)cc1 [drawing 756],50%,,,,MIC (B. subtilis): 12.5 µM; inhibition at 2 µM (B. subtilis): 30%
N=C(N)c1ccc(OCc2cccc(COc3ccc(C(=N)N)cc3F)c2F)c(F)c1 [drawing 757],70%,40%,,,inhibition at 50 µM (E. coli): 90%; MIC (B. subtilis): 12.5 µM; inhibition at 2 µM (B. subtilis): 10%
COc1cc(C(=N)N)ccc1OCc1cccc(COc2ccc(C(=N)N)cc2OC)c1F [drawing 769],50%,30%,50%,25%,
Cn1c(CCc2nc3cc(C(=N)N)ccc3n2C)nc2cc(C(=N)N)ccc21 [drawing 759],,,,,inhibition at 50 µM (E. coli): 10%; inhibition at 12.5 µM (B. subtilis): 20%; inhibition at 25 µM (B. subtilis): 70%
